The values below come from US7981901B2, “Compositions and methods for targeting cerebral circulation and treatment of headache” (priority 2001, dated 2011).

The subject of one series is fever. The note with it: oral delivery; cited from earlier work.
A further series concerns headache. The series can be described thus: Topical NSAID formulations in treatment of headache (inventors' observation). It counts as in vivo, human. Particulars: topically applied to tender spot or area superficial to carotid, temporal and/or vertebral artery. The text has this: Especially preferred compositions include a xanthine derivative in a concentration of about 4% (wt) to 70% (wt) and ketoprofen in a concentration of about 0.5% (wt) to 50% (wt). With respect to the xanthine derivative, the same considerations as described above apply. Furthermore, such particularly preferred compositions may be formulated in a lecithin-containing formulation or a pluronic-lecithin-organogel formulation (supra). It should be especially recognized, that compositions including a xanthine derivative or an NSAID have generally been described in the art. However, the inventors observed that formulations including an NSAID other than Ketoprofen generally fail to provide relief in treatment of a headache, when topically applied to a person (either to a tender spot, or to an area superficial to a carotid artery, a temporal artery and/or a vertebral artery). […] While not wishing to be bound by a particular hypothesis or theory, the inventors contemplate that the effect of Ketoprofen may be at least in part mediated by a muscle-relaxant effect rather than via a suppressive effect in inflammation.

SMILES strings stand for the structures.

Take `CC(=O)Nc1ccc(O)cc1` [acetaminophen, Acetaminophen]: the “time to achieve sufficient concentration in the plasma to lower the fever” value with fever is listed as “at least 20 minutes”.

Take `CC(C(=O)O)c1cccc(C(=O)c2ccccc2)c1` (centres unmarked) [Ketoprofen, 2-(meta-benzoylphenyl)propionic acid]: the “relief in treatment of a headache” value in the series with headache was “the only NSAID effective in treatment of a headache”.
